In test [1] the test system is Con A-induced suppression. Put plainly: Reversal of Con A-induced suppression of the splenic plaque-forming cell (PFC) response to SRBC in mice. As to conditions: for Reversal of Con A-induced suppression (result in words): mice, PFC response to SRBC; for Activity / effective amount on a molar basis relative to the PF4 holoprotein: restoring suppressed immune responses in mice. It counts as in vivo. How it is done: Concanavalin A (Miles--Yeda Ltd., Research Products, Israel) was reconstituted with saline and kept frozen. Dilutions from the frozen stock were stored at 4° C. and injected i.v. into mice one day prior to antigen, sheep erythrocytes (SRBC). SRBC were obtained from Colorado Serum Company (Denver, Colorado) washed, counted and injected intraperitoneally (i.p.) in mice. Human serum or platelet releasate was administered i.v. one to two hours before Con A i.v.
The spleens of the mice were assayed for plaque-forming cells (PFC) on day 5 after injection of sheep red blood cells. The assay employed was as follows: single-cell suspensions were prepared from individual spleens of mice. The cells were suspended in Hanks' Balanced Salt Solution (Gibco Laboratories, Grand Island, New York) and washed. Direct PFC were enumerated using the well-known method of Jerne, N.K. et al (in Cell-Bound Antibody, Amos, E. and Koprowsky, H. eds., Wistar Institute Press. pp. 109-111, […]) with the slide modification of Mishell, R.I. and Dutton, R.W. (J. Exp. Med. 126:423, 1967), both incorporated by reference. […]
When treated with thrombin or A23187 (Calcium ionophore), platelets also release alpha granule constituents other than PF4. In particular, they release LA-PF4 and PDGF. The inventors tested the ability of LA-PF4 and PDGF to overcome suppression induced by 5 μg Con A. […]
Mice were injected with 10 micrograms of Con A i.v. on day -1 (except in the positive control, which received no Con A) and on day 0 with 2.5×10^6 SRBC per mouse as in Example 2 above. On day -1, the mice also received either: Nothing (100% control), Con A only, platelet releasate (equivalent to the amount of PF4 holoprotein contained in the platelet releasate from 2×10^7 platelets or about 0.12 microgram/mouse) and various concentrations of the above-mentioned synthetic C-terminal peptide of human PF4.

Test [2] deals with monocytes. As to conditions: Osterman et al, Biochem. Biophys. Res. Comm. 107:130-135, 1982; cited from earlier work.
Test [3] concerns spleen, lymph node and thymus cells. Put plainly: Absorption of immunoregulatory activity by cells from lymphoid organs, read out as reversal of Con A-induced suppression (PFC/spleen). In kind it is in vivo, CB6F1 mouse. The procedure:
The spleens of the mice were assayed for plaque-forming cells (PFC) on day 5 after injection of sheep red blood cells. The assay employed was as follows: single-cell suspensions were prepared from individual spleens of mice. The cells were suspended in Hanks' Balanced Salt Solution (Gibco Laboratories, Grand Island, New York) and washed. Direct PFC were enumerated using the well-known method of Jerne, N.K. et al (in Cell-Bound Antibody, Amos, E. and Koprowsky, H. eds., Wistar Institute Press. pp. 109-111, […]) with the slide modification of Mishell, R.I. and Dutton, R.W. (J. Exp. Med. 126:423, 1967), both incorporated by reference.
In order to confirm and expand this finding, 1 ml o serum, diluted 1:2, was absorbed twice for thirty minutes at 4° C. using half the number of cells for each absorption as are listed for spleen (Sp1), lymphnode (LN) and thymus (Thy) in Table 3. Each CB6F1 mouse received 0.2 ml of a 1:4 dilution of absorbed or unabsorbed serum i.v. one to two hours before administration of 2×10^6 SRBC i.v. Plaque-forming cell response was measured as in Example 2.
The experiments were performed exactly as described for the PF4 holoprotein in Example 4 above, except that 0.5 (Expt. 1) or 2.5 micrograms (Expt. 2) of the PF4 tridecapeptide was administered.

Where [4] appears, read: 10 micrograms Con A, 0.7-1 μg Tridecapeptide.
Where [5] appears, read: 10 micrograms Con A, 2.5-7 μg Tridecapeptide.
[6] abbreviates: 10 micrograms Con A, 2.5-7 μg Tridecapeptide on day -1, n 5-10.

No end group written: not given here.

With “PDGF: platelet-derived growth factor, platelet alpha-granule constituent [reference compound]”, the “Geom. Mean of PFC/Spleen On Day 5, Expt. 1” value in test [1] (5 μg Con A, antilog of standard error ≤ 1.1, n = 4, PDGF 0.003 μg per mouse) is recorded as 8,370 PFC/Spleen. In addition, in test [1] (concentrations well below those in serum: PDGF 0.003 μg, LA-PF4 0.6 μg, purified PF4 0.2 to 0.6 μg per mouse), the “Immunomodulatory activity against suppression induced by 5 μg Con A (result in words)” value is “little or not activity”. For the same substance, the “Reversal of Con A-induced suppression (result in words)” value in test [1] is “no significant immunomodulating activity”.
Turning to “Pro-Leu-Tyr-Lys-Lys-Ile-Ile-Lys-Lys-Leu-Leu-Glu-Ser-COOH (PLYKKIIKKLLES-OH) [Tridecapeptide, carboxy-terminal 13 amino acid residues of human PF4]”, the “Chemotactic activity for monocytes (result in words)” value in test [2] is “potent chemotactic agent”. In addition, the “Geom mean PFC/Spleen, Expt. 1 Geom. Mean” value in test [3] (SRBC + Con A, 0.5 μg/mouse tridecapeptide, unabsorbed or absorbed with cells) is listed as 23,488 PFC/Spleen. Moreover, the “Geom mean PFC/Spleen, Expt. 2 Geom. Mean” value in test [3] (SRBC + Con A, 2.5 μg/mouse tridecapeptide, unabsorbed or absorbed with cells) is reported as 38,790 PFC/Spleen. Also, the “Absorption of the immunoregulatory activity by cells (result in words)” value in test [3] (normal mouse spleen cells) is “spleen cells can absorb”. For the same substance, the “Reversal of immunosuppression induced by Con A (result in words)” value in test [1] (0.7-7 micrograms administered to mice) was “active in reversing the immunosuppression induced by Con A”. Also, the “Expt.1 % (of 100% control)” value in test [1] (10 micrograms Con A, 0.007 μg Tridecapeptide) is recorded as 52%; in test [1] (10 micrograms Con A, 0.07 μg Tridecapeptide), 37%; in test [1] (setting [4]) it was 95%; in test [1] (setting [5]), 99%. Besides, the “Geom. Mean PFC/Spleen (SE), Expt.1 PFC” value is given as 5,700(1.4) PFC/Spleen in test [1] (10 micrograms Con A, 0.007 μg Tridecapeptide on day -1, n 5-10); 4,000(1.4) PFC/Spleen in test [1] (10 micrograms Con A, 0.07 μg Tridecapeptide on day -1, n 5-10); 10,400(1.1) PFC/Spleen in test [1] (10 micrograms Con A, 0.7-1 μg Tridecapeptide on day -1, n 5-10); 10,900(1.2) PFC/Spleen in test [1] (setting [6]). Also, in test [1] (setting [4]), the “Expt.2 % (of 100% control)” value is reported as 226%. In addition, the “Expt.3 % (of 100% control)” value in test [1] (setting [5]) stood at 270%. Further, the “Geom. Mean PFC/Spleen (SE), Expt.3 PFC” value in test [1] (setting [6]) was 38,800(1,1) PFC/Spleen. Besides, the “Reversal of Con A-induced suppression (result in words)” value in test [1] is recorded as “able to overcome Con A-induced suppression in a dose-dependent fashion”. The figures for the “Activity / effective amount on a molar basis relative to the PF4 holoprotein” value in test [1] and in test [1] (listed as PF4 tridecapeptide) were “less than that of the holoprotein” and “About three times more”, respectively.

These data come from patent publication US4844895A, “Composition containing a peptide fragment of platelet factor four and method for restoring suppressed immune responses” (New York University, priority 1987, dated 1989).
